Measured values reported in patent US20240207258A1, “HETEROCYCLIC PDK1 INHIBITORS FOR USE TO TREAT CANCER” (Viracta Therapeutics, Inc., priority 2015, published 2024).

Columns and labels:
Molm-13 = assay: MTS cell proliferation assay, Molm-13; type: cell-based; conditions: Homo sapiens; Molm-13, 72 hr
Method: (§1) Cell proliferation was measured using the CellTiter 96 Aqueous Non-Radioactive Cell Proliferation Assay (Promega). The CellTiter 96® AQueous Assay is composed of solutions of a tetrazolium compound [3-(4,5-dimethylthiazol-2-yl)-5-(3-carboxymethoxyphenyl)-2-(4-sulfophenyl)-2H-tetrazolium, inner salt; MTS] and an electron coupling reagent (phenazine methosulfate) PMS. MTS is bioreduced by cells into a formazan product that is soluble in tissue culture medium. The absorbance of the formazan product at 490 nm can be measured directly from assay plates without additional processing. The quantity of formazan product as measured by the amount of 490 nm absorbance is directly proportional to the number of living cells in culture. Cells were seeded into 96-well or 384-well clear plates in a volume of 200 μL (96-well) or 50 μL (384-well) at optimized densities ranging from 1,000 to 40,000 cells per well for 96-well plates or 1,200 to 25,000 cells per well for 384-well plates depending on cell-line. After 4-6 hr recovery, serially diluted compounds in DMSO were added to the cells using (0.1% v/v final DMSO concentration). Cells were then grown at 37° C. in a humidified incubator with 5% CO2 for 72 hr. A 20:1 [3-(4,5-dimethylthiazol-2-yl)-5-(3-carboxymethoxyphenyl)-2-(4-sulfophenyl)-2H-tetrazolium](MTS):phenazine methosulfate (PMS) solution in DPBS was made immediately before use, added to each well, and cells were incubated for 1.5 hr at 37° C. The absorbance at 490 nm was then measured using a platereader. Absorbance values were normalized as percent of control (cells incubated in the presence of 0.1% v/v DMSO). Sigmoidal dose-response curves were plotted using log(inhibitor) vs. response—Variable slope (four parameters) model with a top value constrained to 100% (GraphPad Prism version 6.00 for Windows, GraphPad Software, La Jolla California USA). […] Curves for compounds that reached a plateau were matched exactly to the measurement points. […] To determine potential of compounds of the invention to affect viability of hematological cancers, cell lines representing various tumor types were selected and tested. Human cell lines tested were: MOLM-13 (acute myeloid leukemia (AML)), MV4-11 (AML), U-2932 (ABC-diffuse large B cell lymphoma), U-937 (histiocytic lymphoma), U-266 (multiple myeloma), RPMI-8226 (multiple myeloma), CMK (megakaryoblastic cell line), SU-DHL-4 (GCB-diffuse large B cell lymphoma), KG1 (AML), Mec-1 (chronic B-cell leukemia), MOLM-16 (AML), Jeko (B-cell lymphoma), WSU-DLCL2 (B-cell lymphoma), JJN3 (plasma cell leukemia), SU-DHL-6 (GCB-diffuse large B cell lymphoma), and Z-138 (mantle cell lymphoma). In addition, two murine cell lines were tested: A20 […].

MV4-11 = assay: MTS cell proliferation assay, MV4-11; type: cell-based, human; conditions: Homo sapiens, MV4-11, 72 h, read-out: MTS proliferation assay (μM)
Method: (§2) Cell proliferation was measured using the CellTiter 96 Aqueous Non-Radioactive Cell Proliferation Assay (Promega). […] MTS is bioreduced by cells into a formazan product that is soluble in tissue culture medium. The absorbance of the formazan product at 490 nm can be measured directly from assay plates without additional processing. The quantity of formazan product as measured by the amount of 490 nm absorbance is directly proportional to the number of living cells in culture. Cells were seeded into 96-well or 384-well clear plates in a volume of 200 μL (96-well) or 50 μL (384-well) at optimized densities ranging from 1,000 to 40,000 cells per well for 96-well plates or 1,200 to 25,000 cells per well for 384-well plates depending on cell-line. After 4-6 hr recovery, serially diluted compounds in DMSO were added to the cells using (0.1% v/v final DMSO concentration). Cells were then grown at 37° C. in a humidified incubator with 5% CO2 for 72 hr. A 20:1 [3-(4,5-dimethylthiazol-2-yl)-5-(3-carboxymethoxyphenyl)-2-(4-sulfophenyl)-2H-tetrazolium](MTS):phenazine methosulfate (PMS) solution in DPBS was made immediately before use, added to each well, and cells were incubated for 1.5 hr at 37° C. The absorbance at 490 nm was then measured using a platereader. Absorbance values were normalized as percent of control (cells incubated in the presence of 0.1% v/v DMSO). Sigmoidal dose-response curves were plotted using log(inhibitor) vs. response—Variable slope (four parameters) model with a top value constrained to 100% (GraphPad Prism version 6.00 for Windows, GraphPad Software, La Jolla California USA). […] To determine potential of compounds of the invention to affect viability of hematological cancers, cell lines representing various tumor types were selected and tested. […] In addition, two murine cell lines were tested: A20 […].

U-2932 = assay: MTS cell proliferation assay, U-2932; type: cell-based; conditions: Homo sapiens, U2932; U-2932, 72 hr
Method: as §1

RPMI-8226 = assay: MTS cell proliferation assay, RPMI-8226; type: cell-based; conditions: Homo sapiens; RPMI-8226, 72 hr
Method: as §1

Jeko = assay: MTS cell proliferation assay, Jeko; type: cell-based; conditions: Homo sapiens, 72 hr
Method: as §1

A20 = assay: MTS cell proliferation assay, A20; type: cell-based, murine; conditions: Mus musculus; A20, 72 hr
Method: as §1

C1498 = assay: MTS cell proliferation assay, C1498; type: cell-based, murine; conditions: Mus musculus, C1498, 72 h, read-out: MTS proliferation assay (μM)
Method: as §2

MV4-11 cells = assay: Induction of apoptosis (Annexin V / propidium iodide flow cytometry); type: cell-based, human
Method: Cells were seeded in a six-well tissue culture plate in 3 mL complete growth medium (3×10^5 cells/well) and allowed to equilibrate for 1 hr at 37° C. in a humidified incubator with 5% CO2. DMSO (control), test compound, or doxorubicin was added to the wells (0.1% final DMSO concentration). Cells were returned to the incubator for 24 hrs. On the day of analysis 1×10^5 cells were labeled according to manufacturer's instructions and analyzed by flow cytometry (BD FACSCaalibur™, GH) to determine the percent of apoptotic cells (annexin V positive, AV+) and/or apoptotic dead cells (AV+ and propidium iodide positive (PI+)).

P-AKT = assay: Western blot, AKT phosphorylation in A20 cells; type: cell-based, murine
Method: For phosphoprotein analyses, cells were seeded into 10 cm petri dishes (10×10^6 cells/dish) in media supplemented with 10% FBS and penicillin/streptomycin. After cells recovered for 1 hr at 37° C., compounds were added in DMSO (0.1% final) and incubated for 4 or 24 hr at 37° C. Cells were then harvested by centrifugation and washed with cold PBS. Cell pellets were resuspended in cell extraction buffer (Invitrogen) supplemented with 2×Halt™ protease and phosphatase inhibitor cocktail (Thermo Scientific), 2 mM sodium orthovanadate, 10 mM EDTA and 4 mM PMSF. Samples were lysed by sonication and incubated on ice for 30 min. Cell debris was removed by centrifugation and protein concentrations were determined using the BCA Protein Assay Kit (Pierce). The clarified lysate was diluted in LDS sample buffer with reducing agent (Life Technologies). […] Gels were run at 110 V and proteins were transferred to a PVDF membrane. Membranes were blocked in TBS blocking buffer (Li-Cor Biosciences) for 1 hr. Primary antibodies (Cell Signaling, Sant Cruz Biotechnology) were added (1:1,000 dilution) in blocking buffer with 0.1% Tween-20 and 1:20,000 dilution of β-actin antibody and incubated for 14 hr at 4° C. Blots were washed in TBS-T. Label-conjugated goat anti-rabbit secondary antibody (IRdye® 800CW; Li-Cor Biosciences) was added in blocking buffer with 0.1% Tween-20 and 0.02% SDS and incubated for 1 hr. After washing in TBS-T followed by TBS, membranes were scanned on an Odyssey imaging system (Li-Cor Biosciences). Bands were quantitated using ImageJ.

P-PDK1 = assay: Pathway modulation in MV4-11 tumor xenografts, pPDK1; type: in vivo, mice; conditions: MV4-11 tumors, IP 50 mg/kg
Text: MV4-11 cells propagated in vitro were implanted subcutaneous into the right flank of 9-week old female NCr nu/nu mice. On the day of implant, MV4-11 cells were harvested during log phase growth and resuspended in phosphate buffered saline (PBS) containing 50% Matrigel™ (BD Biosciences) at a concentration of 1×10^8 cells/mL. […] Two weeks after implantation, animals were assigned to individual groups of 3 animals with and average tumor volume of approximately 200 mm^3. […] Eight hours post-dose, full blood volume was collected by cardiac puncture under isoflurane anesthesia and tumors were excised and snapfrozen in liquid nitrogen and stored at −80° C. until further analysis. Tumors were pulverized in liquid nitrogen using a Biopulverizer and split into two sample tubes: one for Western blot analysis and one for analysis of compound levels by LC-MS/MS. […] For MS analysis, tumor samples were homogenized with a Virsonic 100 ultrasonic homogenizer. Each sample was first weighed, and then an appropriate volume of 20:80 methanol:water was added to make a 9 mL/gram sample. Samples were then homogenized on ice, and stored frozen until analysis. Standards were prepared in BALB/c mouse plasma or blank homogenized tumor tissue. Standards and samples were analyzed on a PE Sciex API4000 instrument and compound concentration was quantified and back-calculated to ng compound per g tumor tissue and converted to M concentration assuming 1 g tumor tissue equals 1 mL volume.

[1] = tested on: hematologic tumor cell lines; assay: MTS cell proliferation assay, panel of hematologic cancer cell lines; type: cell-based; conditions: 72 hrs, percent of control
Method: as §1

[2] = target: T1, Full-length phosphorylated PDK1 (Homo sapiens, UniProt O15530); assay: FRET-based PIF-tide binding assay; conditions: 10 nM compound where stated, FIG. 13D
T1 sequence (O15530 1-556): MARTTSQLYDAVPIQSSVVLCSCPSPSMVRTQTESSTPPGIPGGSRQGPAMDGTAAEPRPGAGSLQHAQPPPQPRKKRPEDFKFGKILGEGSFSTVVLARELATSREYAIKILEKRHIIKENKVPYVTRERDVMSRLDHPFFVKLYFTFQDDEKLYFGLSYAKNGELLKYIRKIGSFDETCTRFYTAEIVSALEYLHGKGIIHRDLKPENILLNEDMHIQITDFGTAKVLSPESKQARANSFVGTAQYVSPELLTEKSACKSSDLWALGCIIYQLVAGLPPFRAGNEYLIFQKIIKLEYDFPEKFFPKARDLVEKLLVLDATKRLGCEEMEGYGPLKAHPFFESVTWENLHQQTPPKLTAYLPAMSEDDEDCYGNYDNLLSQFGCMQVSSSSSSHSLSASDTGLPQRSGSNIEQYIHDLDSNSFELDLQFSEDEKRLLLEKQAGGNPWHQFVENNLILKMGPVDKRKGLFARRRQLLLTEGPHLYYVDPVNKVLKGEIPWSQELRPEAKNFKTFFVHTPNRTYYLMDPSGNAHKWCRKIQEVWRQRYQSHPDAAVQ

CNc1nc(-c2ccc3c(N)n[nH]c3c2)cc(N2C[C@@H](C(=O)NC3CCCCC3)CC[C@H]2C)n1 [GSK2334470, reference compound]
EC50 (Molm-13): 360 nM | EC50 (MV4-11): 0.105 µM | EC50 (U-2932): 986 nM | EC50 (RPMI-8226): 2900 nM | EC50 (Jeko): 2250 nM | EC50 (A20): 490 nM | EC50 (C1498): 0.358 µM | apoptosis at 100 nM (MV4-11 cells; 100 nM): no evidence of apoptosis | concentration inducing apoptosis (MV4-11 cells; 24 hrs): > 300 nM | P-AKT levels (P-AKT): barely affected | pathway modulation and tumor exposure (P-PDK1): comparable to that of 50 mg/kg GDC0941 and 1 mg/kg Compound 1 or Compound 2

COc1cccc2c1C(=O)c1c(O)c3c(c(O)c1C2=O)C[C@@](O)(C(=O)CO)C[C@@H]3O[C@H]1C[C@H](N)[C@H](O)[C@H](C)O1 [doxorubicin, reference compound]
plateau of growth inhibition curve at higher concentrations [1]: < 20%

CN[C@@H]1C[C@H]2O[C@@](C)([C@@H]1OC)n1c3ccccc3c3c4c(c5c6ccccc6n2c5c31)C(=O)NC4 [staurosporine, reference compound]
FRET between PDK1 and PIF-tide [2]: does not inhibit FRET
